Experimental data from patent US20200024278A1, “COMPOSITION COMPRISING ANTIBIOTIC COMPOUND AND AN HETEROCYCLIC COMPOUND AND THEIR USE IN PREVENTING OR TREATING BACTERIAL INFECTIONS” (MUTABILIS, priority 2016, published 2020).

Key:
[1] = system: SPN 49619; assay: MIC, broth microdilution (CLSI), substance alone or ATB combined with compound at 4 or 8 μg/mL; format: cell-based, S. pneumoniae; conditions: SPN 49619
Experimental: (§1) Compounds of the present invention were assessed against genotyped bacterial strains alone or in combination with an antibacterial. In the assays, MICs of said compounds or combination of antibiotics with fixed concentrations of said compounds (4 or 8 μg/mL) were determined by the broth microdilution method according to the Clinical Laboratory Standards Institute (CLSI-M7-A7). Briefly, compounds alone according to the invention were prepared in DMSO and spotted (2 μL each) on sterile polystyrene plates (Corning, 3788). Combinations of compounds and antibiotics dilutions were prepared in DMSO and spotted (1 μL each) on sterile polystyrene plates (Corning, 3788). Log phase bacterial suspensions were adjusted to a final density of 5·10^5 CFU/mL in cation-adjusted Mueller-Hinton broth (ca-MHB; Becton-Dickinson and Company) and added to each well (98 μL). Assays including Fosfomycin were supplemented with 25 μg/ml of Glucose-6-phosphate. Microplates were incubated for 16-20 h at 35° C. in ambient air. The MIC of the compounds was defined as the lowest concentration of said compounds that prevented bacterial growth as read by visual inspection. The MIC of ATB at each compound concentration was defined as the lowest concentration of ATB that prevented bacterial growth as read by visual inspection.

[2] = system: SAU 29213; assay: as above; format: cell-based, S. aureus; conditions: SAU 29213
Experimental: as §1

SMILES	MIC ATB alone ([1]; ERY alone) [µg/mL]	MIC ATB alone ([1]; antibiotic alone) [µg/mL]	MIC ATB combined with Example 1 @8 μg/ml [1] [µg/mL]	MIC ATB combined with Example 9 @4 μg/ml [1]	MIC ATB alone ([2]; ERY alone) [µg/mL]	MIC ATB alone ([2]; antibiotic alone) [µg/mL]	MIC ATB combined with Example 1 @8 μg/ml [2] [µg/mL]	MIC ATB combined with Example 9 @4 μg/ml [2]	MIC ATB alone ([1]; LZD alone) [µg/mL]	MIC ATB alone ([2]; LZD alone) [µg/mL]	MIC ATB alone ([1]; RIF alone) [µg/mL]	MIC ATB alone ([2]; RIF alone) [µg/mL]	MIC ATB alone ([1]; VAN alone) [µg/mL]	MIC ATB alone ([2]; VAN alone) [µg/mL]
CC[C@H]1OC(=O)[C@H](C)[C@@H](O[C@H]2C[C@@](C)(OC)[C@@H](O)[C@H](C)O2)[C@H](C)[C@@H](O[C@@H]2O[C@H](C)C[C@H](N(C)C)[C@H]2O)[C@](C)(O)C[C@@H](C)C(=O)[C@H](C)[C@@H](O)[C@]1(C)O [ERY]	0.063	0.063	0.063	<0.0020 µg/mL	1	1	0.25	<=0.0020 μg/mL	–	–	–	–	–	–
CC(=O)NC[C@H]1CN(c2ccc(N3CCOCC3)c(F)c2)C(=O)O1 [LZD]	–	1	1	<=0.0078 μg/mL	–	4	2	<0.0078 µg/mL	1	4	–	–	–	–
CO[C@H]1/C=C/O[C@@]2(C)Oc3c(C)c(O)c4c(O)c(c(/C=N/N5CCN(C)CC5)c(O)c4c3C2=O)NC(=O)/C(C)=C\C=C\[C@H](C)[C@H](O)[C@@H](C)[C@@H](O)[C@@H](C)[C@H](OC(C)=O)[C@@H]1C [RIF]	–	0.031	0.063	0.00024 µg/mL	–	0.0078	0.0078	0.002 µg/mL	–	–	0.031	0.0078	–	–
CN[C@H](CC(C)C)C(=O)N[C@H]1C(=O)N[C@@H](CC(N)=O)C(=O)N[C@H]2C(=O)N[C@H]3C(=O)N[C@H](C(=O)N[C@H](C(=O)O)c4cc(O)cc(O)c4-c4cc3ccc4O)[C@H](O)c3ccc(c(Cl)c3)Oc3cc2cc(c3O[C@@H]2O[C@H](CO)[C@@H](O)[C@H](O)[C@H]2O[C@H]2C[C@](C)(N)[C@H](O)[C@H](C)O2)Oc2ccc(cc2Cl)[C@H]1O [VAN]	–	0.25	0.25	<0.0039 µg/mL	–	1	1	<0.0039 µg/mL	–	–	–	–	0.25	1
